The assay has as its target T1, recombinant IL4I1 (Homo sapiens, UniProt Q96RQ9).
T1 construct: purchased R&D Systems 5684-AO-020
T1 sequence (Q96RQ9 22-567): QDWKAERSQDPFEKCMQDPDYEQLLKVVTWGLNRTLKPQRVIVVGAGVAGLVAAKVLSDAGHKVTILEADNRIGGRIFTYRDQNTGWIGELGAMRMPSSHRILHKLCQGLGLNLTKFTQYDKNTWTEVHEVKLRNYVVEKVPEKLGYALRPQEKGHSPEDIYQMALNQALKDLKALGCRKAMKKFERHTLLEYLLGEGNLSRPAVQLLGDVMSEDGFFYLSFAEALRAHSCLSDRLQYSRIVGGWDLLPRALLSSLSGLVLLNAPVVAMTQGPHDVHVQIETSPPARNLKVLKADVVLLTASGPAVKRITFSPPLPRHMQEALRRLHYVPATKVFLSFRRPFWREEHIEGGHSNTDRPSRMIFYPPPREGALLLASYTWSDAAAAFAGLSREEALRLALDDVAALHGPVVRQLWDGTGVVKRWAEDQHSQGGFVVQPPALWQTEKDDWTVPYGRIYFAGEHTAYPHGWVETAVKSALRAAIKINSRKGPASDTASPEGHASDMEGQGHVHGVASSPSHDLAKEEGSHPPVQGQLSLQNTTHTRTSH
The experiment in a line: IL4I1 Enzymatic Assay (Amplex Red/HRP coupled detection of H2O2, fluorescence). Type of assay: biochemical. Particulars: 1 nM recombinant IL4I1; four-hour pre-incubation with compound; 1 mM each Phe, Tyr, Trp; ten-point titration. The gist of the method: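 Recombinant IL4I1 (1 nM final) pre-incubated 4 h at ambient temperature with compound (0.5% DMSO) in 50 mM Hepes pH 7.0, 0.005% Tween20; reaction started with 1 mM each Phe/Tyr/Trp plus excess Amplex Red/HRP, run 120 min. H2O2 read as resorufin fluorescence; EC50 from 10-point four-parameter fit.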
`O=C(NCc1nnc(-c2ccccc2)s1)c1cn(C2(CO)CCC2)nn1` [Example 163, 1-(1-(hydroxymethyl)cyclobutyl)-N-((5-phenyl-1,3,4-thiadiazol-2-yl)methyl)-1H-1,2,3-triazole-4-carboxamide]: the EC50 was 104 nM.

Consider `O=C(NCc1nnc(-c2ccccc2)s1)c1cn(Cc2cn[nH]c2)nn1` [Example 164, 1-((1H-pyrazol-4-yl)methyl)-N-((5-phenyl-1,3,4-thiadiazol-2-yl)methyl)-1H-1,2,3-triazole-4-carboxamide], for which the half-maximal effective concentration (EC50) is 17 nM.

Regarding `O=C(NCc1nnc(-c2ccccc2)s1)c1cn(C[C@@H](F)CO)nn1` [Example 165, (R)-1-(2-fluoro-3-hydroxypropyl)-N-((5-phenyl-1,3,4-thiadiazol-2-yl)methyl)-1H-1,2,3-triazole-4-carboxamide], the EC50 amounted to 7 nM.

Consider `C[C@@H](CO)n1cc(C(=O)NCc2nnc(-c3ccccc3)s2)nn1` [Example 166, (S)-1-(1-hydroxypropan-2-yl)-N-((5-phenyl-1,3,4-thiadiazol-2-yl)methyl)-1H-1,2,3-triazole-4-carboxamide], for which the EC50 came out at 9 nM.

On to `C[C@@H](C(F)F)n1cc(C(=O)NCc2nnc(-c3ccccc3)s2)nn1` [Example 167, (S)-1-(1,1-difluoropropan-2-yl)-N-((5-phenyl-1,3,4-thiadiazol-2-yl)methyl)-1H-1,2,3-triazole-4-carboxamide], for which the EC50 was 7 nM.

For `C[C@H](C(F)F)n1cc(C(=O)NCc2nnc(-c3ccccc3)s2)nn1` [Example 168, (R)-1-(1,1-difluoropropan-2-yl)-N-((5-phenyl-1,3,4-thiadiazol-2-yl)methyl)-1H-1,2,3-triazole-4-carboxamide], the 50% effective concentration (EC50) came to 7 nM.

On to `C[C@H](O)[C@@H](C)n1cc(C(=O)NCc2nnc(-c3ccccc3)s2)nn1` [Example 169, 1-((2R,3S)-3-hydroxybutan-2-yl)-N-((5-phenyl-1,3,4-thiadiazol-2-yl)methyl)-1H-1,2,3-triazole-4-carboxamide], for which the EC50 was determined as 68 nM.

Take `C[C@H](CCF)n1cc(C(=O)NCc2nnc(-c3ccccc3)s2)nn1` [Example 170, (R)-1-(4-fluorobutan-2-yl)-N-((5-phenyl-1,3,4-thiadiazol-2-yl)methyl)-1H-1,2,3-triazole-4-carboxamide]: the concentration giving a half-maximal response (EC50) was 34 nM.

Regarding `O=C(NCc1nnc(-c2ccccc2)s1)c1cn(CCC(F)F)nn1` [Example 171, 1-(3,3-difluoropropyl)-N-((5-phenyl-1,3,4-thiadiazol-2-yl)methyl)-1H-1,2,3-triazole-4-carboxamide], the EC50 was 10 nM.

As to `O=C(NCc1nnc(-c2ccccc2)s1)c1cn(C23CC(C2)C3)nn1` [Example 172, 1-(bicyclo[1.1.1]pentan-1-yl)-N-((5-phenyl-1,3,4-thiadiazol-2-yl)methyl)-1H-1,2,3-triazole-4-carboxamide], the concentration for a half-maximal effect (EC50) came out at 49 nM.

Regarding `O=C(NCc1nnc(-c2ccccc2)s1)c1cn(C23CC(F)(C2)C3)nn1` [Example 173, 1-(3-fluorobicyclo[1.1.1]pentan-1-yl)-N-((5-phenyl-1,3,4-thiadiazol-2-yl)methyl)-1H-1,2,3-triazole-4-carboxamide], the EC50 came to 334 nM.

Take `COC1CC(n2cc(C(=O)NCc3nnc(-c4ccccc4)s3)nn2)C1` (centres unmarked) [Example 174, 1-(3-methoxycyclobutyl)-N-((5-phenyl-1,3,4-thiadiazol-2-yl)methyl)-1H-1,2,3-triazole-4-carboxamide]: the EC50 was 16 nM.

As to `O=C(NCc1nnc(-c2ccccc2)s1)c1cn(C2CC(CO)(CO)C2)nn1` [Example 175, 1-(3,3-bis(hydroxymethyl)cyclobutyl)-N-((5-phenyl-1,3,4-thiadiazol-2-yl)methyl)-1H-1,2,3-triazole-4-carboxamide], the EC50 came out at 80 nM.

Regarding `O=C(NCc1nnc(-c2ccccc2)s1)c1cn(CC(F)(F)CO)nn1` [Example 176, 1-(2,2-difluoro-3-hydroxypropyl)-N-((5-phenyl-1,3,4-thiadiazol-2-yl)methyl)-1H-1,2,3-triazole-4-carboxamide], the EC50 was found to be 7 nM.

In general, EC50 refers to the concentration at which the effect is half-maximal.

Values taken from patent publication US20240336608A1, “IL4I1 INHIBITORS AND METHODS OF USE” (Merck Sharp & Dohme LLC, priority 2023, published 2024).
